Measured values reported in BindingDB's records for doi:10.1021/acs.jmedchem.8b01596 (China Pharmaceutical University, 2019).

Molecular target: Hypoxia-inducible factor 1-alpha (Homo sapiens, UniProt Q16665)
Test: Inhibition of HIF-1alpha in human HeLa cells after 6 hrs by luciferase reporter gene assay

Chain of Hypoxia-inducible factor 1-alpha (Q16665 whole entry): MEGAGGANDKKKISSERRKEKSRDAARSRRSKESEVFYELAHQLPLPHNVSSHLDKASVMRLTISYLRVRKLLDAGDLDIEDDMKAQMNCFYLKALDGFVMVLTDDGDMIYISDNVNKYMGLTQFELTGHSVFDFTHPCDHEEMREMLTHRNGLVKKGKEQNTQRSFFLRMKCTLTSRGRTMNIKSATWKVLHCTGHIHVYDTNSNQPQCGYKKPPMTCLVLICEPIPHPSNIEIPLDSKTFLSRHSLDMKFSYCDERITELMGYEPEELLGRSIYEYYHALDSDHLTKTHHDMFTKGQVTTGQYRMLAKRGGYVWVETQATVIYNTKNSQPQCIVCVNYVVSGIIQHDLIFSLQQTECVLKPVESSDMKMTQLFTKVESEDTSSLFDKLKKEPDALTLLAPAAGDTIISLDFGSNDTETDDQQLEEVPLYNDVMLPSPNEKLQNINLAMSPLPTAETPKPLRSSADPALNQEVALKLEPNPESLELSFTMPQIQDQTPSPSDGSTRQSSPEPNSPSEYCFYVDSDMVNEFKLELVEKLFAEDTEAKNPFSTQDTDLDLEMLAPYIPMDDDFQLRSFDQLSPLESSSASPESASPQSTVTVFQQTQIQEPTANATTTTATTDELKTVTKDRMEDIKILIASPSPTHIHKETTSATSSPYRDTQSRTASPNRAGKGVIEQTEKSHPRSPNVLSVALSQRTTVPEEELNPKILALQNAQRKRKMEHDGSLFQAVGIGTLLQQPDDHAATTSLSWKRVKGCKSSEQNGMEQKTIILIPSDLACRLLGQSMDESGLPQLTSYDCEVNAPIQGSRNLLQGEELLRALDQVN

SMILES: Cc1ccc(C(=O)COC(=O)c2cccc(NC(=O)c3ccc([N+](=O)[O-])cc3[N+](=O)[O-])c2)cc1 [3-[[(2,4-dinitrophenyl)-oxomethyl]amino]benzoic acid [2-(4-methylphenyl)-2-oxoethyl] ester]
- IC50: 2.6 µM
